Counter-ions that a name gives are not always drawn.
Tests used:
[1] = test system: Diet-induced obesity (DIO) mice; assay: Anti-obesity effect test using DIO mouse; type: in vivo; settings: for Body weight (g) At start of administration: average at start of administration; for Body weight (g) After 7-day administration: average; for Fecal protein concentration-increasing rate (%): feces of eighth day, vehicle = 100
Experimental: Test Example 3: Anti-Obesity Effect Test Using DIO Mouse
(§1) Diet-induced obesity (DIO) mice (D12451 diet, male, 26-week old) were orally administered with a 0.5% methyl cellulose suspension containing a test compound (30 mg/kg) (compound administration group, five mice per group) or a 0.5% methyl cellulose suspension (compound non-administration group (vehicle), five mice per group) once a day for seven days, and whole feces were collected on the eighth day of administration. Dried feces were dissolved in 0.5 N NaOH, followed by centrifugation at 12,000 rpm. The protein concentration in the supernatant was then quantitatively measured (Lowry method), and the amount of protein contained in 1 g of feces was calculated as the fecal protein concentration (mg/g feces). The fecal protein concentration-increasing rate was calculated by the following expression.
Fecal protein concentration-increasing rate (%)=Fecal protein concentration of compound administration group/Fecal protein concentration of vehicle group X 100
The fecal protein concentration-increasing rate and the averages of the body weights at the start of administration and after administration for seven days are shown in Table 6.
Also, DIO mice (D12451 diet, male, 59-week old) were orally administered with a 0.5% methyl cellulose suspension containing a test compound (20 mg/kg) (compound administration group, five mice per group) or a 0.5% methyl cellulose suspension (compound non-administration group (vehicle), five mice per group) once a day for seven days, and whole feces were collected on the eighth day of administration. The fecal protein concentration (mg/g feces) was calculated by the method described above. The fecal protein concentration-increasing rate and the averages of the body weights at the start of administration and after administration for seven days are shown in Table 7.

[2] = target: T1, Human recombinant enteropeptidase (Homo sapiens, UniProt P98073); assay: Human enteropeptidase inhibitory activity; type: biochemical; settings: 1 μM test compound; fluorescence intensity at 2 hours after start of reaction; read-out: Inhibition rate at 1 μM
T1 construct: purchased ITSI-Biosciences LLC #REN-260
Experimental: Test Example 1: Human Enteropeptidase Inhibitory Activity
Human recombinant enteropeptidase (#REN-260, ITSI-Biosciences LLC) was diluted with an assay buffer (50 mM Tricine, pH 8.0, 0.01 (w/v) %, Tween 20, 10 mM CaCl2)) to prepare a 24 mU/mL enzyme solution. Subsequently, 5FAM-Abu-Gly-Asp-Asp-Asp-Lys-Ile-Val-Gly-Gly-Lys(CPQ2)-Lys-Lys-NH2 (CPC Scientific Inc.) was diluted with the assay buffer to prepare a 2.1 μM substrate solution. A test compound is dissolved in DMSO into a 10 mM solution, and the solution was diluted with the assay buffer to give a compound solution. To a 384-well black plate (#784076, Greiner Bio-One), 5 μL of the compound solution and 5 μL of the substrate solution were added and mixed, and 5 μL of the enzyme solution was then added to the mixture, followed by mixing to start the reaction. The fluorescence intensity was measured with a fluorescence plate reader EnVision (The Perkin-Elmer Corp.) at an excitation wavelength of 485 nm and a fluorescence wavelength of 535 nm. The same reaction as above was performed without the addition of the test compound (test compound non-addition group). Furthermore, the same reaction as above was performed without the addition of the test compound and the enzyme (control group). The inhibition rate was calculated using the fluorescence intensity at 2 hours after the start of the reaction by the following expression:
Inhibition rate (%)=(1−((fluorescence intensity of test compound addition group)−(fluorescence intensity of control group))/((fluorescence intensity of test compound non-addition group)−(fluorescence intensity of control group)))×100

High fat diet-fed mice = assay: Fecal protein concentration-increasing test using high fat diet-fed mouse; type: in vivo; settings: Mus musculus, po, 24 h, 30 mg/kg oral, feces of first day of administration, vehicle group = 100, read-out: Fecal protein concentration-increasing rate
Excerpt: Test Example 2: Fecal Protein Concentration-Increasing Test Using High Fat Diet-Fed Mouse
as §1, with “High fat diet-fed” for “Diet-induced obesity (DIO)”, “10- to 50-week” for “26-week”, “compound” for “compound (30 mg/kg)”, “(vehicle group),” for “(vehicle),”, “group),” for “group) once a day for seven days,”, “first” for “eighth”
Fecal protein concentration-increasing rate (%)=Fecal protein concentration of compound administration group/Fecal protein concentration of vehicle group×100

[3] = DIO mice 26-week old, 30 mg/kg group
[4] = DIO mice 26-week old, 30 mg/kg oral once a day for seven days
[5] = DIO mice 59-week old, 20 mg/kg group
[6] = DIO mice 59-week old, 20 mg/kg oral once a day for seven days

T1 sequence (P98073 whole entry): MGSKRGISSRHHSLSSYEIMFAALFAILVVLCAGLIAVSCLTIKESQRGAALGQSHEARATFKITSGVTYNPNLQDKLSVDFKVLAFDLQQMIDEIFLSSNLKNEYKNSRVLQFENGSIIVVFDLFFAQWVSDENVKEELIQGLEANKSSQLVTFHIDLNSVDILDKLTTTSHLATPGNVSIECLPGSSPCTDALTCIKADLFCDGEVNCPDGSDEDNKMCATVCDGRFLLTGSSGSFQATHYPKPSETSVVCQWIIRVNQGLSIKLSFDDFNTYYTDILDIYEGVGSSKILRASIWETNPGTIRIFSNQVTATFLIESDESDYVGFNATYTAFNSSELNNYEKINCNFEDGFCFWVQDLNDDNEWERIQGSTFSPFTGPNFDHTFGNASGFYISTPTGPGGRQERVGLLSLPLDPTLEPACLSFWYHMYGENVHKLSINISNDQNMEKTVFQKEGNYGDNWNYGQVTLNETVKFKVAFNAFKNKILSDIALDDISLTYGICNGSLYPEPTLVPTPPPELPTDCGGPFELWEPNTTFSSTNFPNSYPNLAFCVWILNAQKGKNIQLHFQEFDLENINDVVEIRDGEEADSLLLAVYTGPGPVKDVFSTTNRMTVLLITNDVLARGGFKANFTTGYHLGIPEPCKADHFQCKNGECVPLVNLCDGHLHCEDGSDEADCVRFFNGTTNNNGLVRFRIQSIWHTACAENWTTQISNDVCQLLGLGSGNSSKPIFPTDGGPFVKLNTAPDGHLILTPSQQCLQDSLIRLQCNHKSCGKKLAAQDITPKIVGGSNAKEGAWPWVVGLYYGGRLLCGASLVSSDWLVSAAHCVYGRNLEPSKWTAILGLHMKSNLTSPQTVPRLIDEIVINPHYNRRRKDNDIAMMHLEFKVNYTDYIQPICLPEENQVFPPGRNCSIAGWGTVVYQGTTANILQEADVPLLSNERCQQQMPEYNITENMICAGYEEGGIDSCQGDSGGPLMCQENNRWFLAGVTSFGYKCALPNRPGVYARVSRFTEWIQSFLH

Compound	Body weight (g) At start of administration [1, 3] [g]	Body weight (g) After 7-day administration [1, 4] [g]	Fecal protein concentration-increasing rate (%) [1, 4] [%]	Body weight (g) At start of administration [1, 5] [g]	Body weight (g) After 7-day administration [1, 6] [g]	Fecal protein concentration-increasing rate (%) [1, 6] [%]	inhibition at 1 µM [2] [%]	response vs control in vivo at 30 mg/kg (High fat diet-fed mice) [%]
Cl.Cl.N=C(N)Nc1ccc(C(=O)Oc2cc(OCCOCCOc3cc(OC(=O)c4ccc(NC(=N)N)cc4)cc(C(=O)N[C@H](CC(=O)O)C(=O)O)c3)cc(C(=O)N[C@H](CC(=O)O)C(=O)O)c2)cc1 [Example 15, (2R)-2-[[3-[2-[2-[3-[[(1R)-1,2-Dicarboxyethyl]carbamoyl]-5-(4-guanidinobenzoyl)oxyphenoxy]ethoxy]ethoxy]-5-(4-guanidinobenzoyl)oxybenzoyl]amino]butanedioic acid dihydrochloride]	46.0	43.4	250	56.6	54.0	227	100	212
N=C(N)Nc1ccc(C(=O)Oc2cc(OCCOc3cc(OC(=O)c4ccc(NC(=N)N)cc4)cc(C(=O)N[C@H](CC(=O)O)C(=O)O)c3)cc(C(=O)N[C@H](CC(=O)O)C(=O)O)c2)cc1 [Example 16, (2R)-2-[[3-[2-[3-[[(1R)-1,2-Dicarboxyethyl]carbamoyl]-5-(4-Guanidinobenzoyl)oxyphenoxy]ethoxy]-5-(4-guanidinobenzoyl)oxybenzoyl]amino]butanedioic acid dihydrochloride]	45.7	44.7	271	–	–	–	100	245
N=C(N)Nc1ccc(C(=O)Oc2ccc(C(=O)N[C@H](CC(=O)O)C(=O)O)c(OCCOCCOc3cc(OC(=O)c4ccc(NC(=N)N)cc4)ccc3C(=O)N[C@H](CC(=O)O)C(=O)O)c2)cc1 [Example 21, (2R)-2-[[2-[2-[2-[2-[[(1R)-1,2-Dicarboxyethyl]carbamoyl]-5-(4-guanidinobenzoyl)oxyphenoxy]ethoxy]ethoxy]-4-(4-guanidinobenzoyl)oxybenzoyl]amino]butanedioic acid dihydrochloride]	–	–	–	56.7	53.6	248	100	203
N=C(N)Nc1ccc(C(=O)Oc2cc(OCCOCCOCCOc3cc(OC(=O)c4ccc(NC(=N)N)cc4)cc(C(=O)N[C@H](CO)C(=O)O)c3)cc(C(=O)N[C@H](CO)C(=O)O)c2)cc1 [Example 10, (2R)-2-[[3-[2-[2-[2-[3-[[(1R)-1-Carboxy-2-hydroxyethyl]carbamoyl]-5-(4-guanidinobenzoyl)oxyphenoxy]ethoxy]ethoxy]ethoxy]-5-(4-guanidinobenzoyl)oxybenzoyl]amino]-3-hydroxypropanoic acid]	–	–	–	–	–	–	92	179
N=C(N)Nc1ccc(C(=O)Oc2cc(OCCOCCOc3cc(OC(=O)c4ccc(NC(=N)N)cc4F)cc(C(=O)N[C@H](CC(=O)O)C(=O)O)c3)cc(C(=O)N[C@H](CC(=O)O)C(=O)O)c2)c(F)c1 [Example 18, (2R)-2-[[3-[2-[2-[3-[[(1R)-1,2-Dicarboxyethyl]carbamoyl]-5-(2-fluoro-4-guanidinobenzoyl)oxyphenoxy]ethoxy]ethoxy]-5-(2-fluoro-4-guanidinobenzoyl)oxybenzoyl]amino]butanedioic acid]	–	–	–	–	–	–	100	142
N=C(N)Nc1ccc(C(=O)Oc2ccc(CCC(=O)N[C@H](CC(=O)O)C(=O)O)c(OCCOCCOc3cc(OC(=O)c4ccc(NC(=N)N)cc4)ccc3CCC(=O)N[C@H](CC(=O)O)C(=O)O)c2)cc1 [Example 13, (2R)-2-[3-[2-[2-[2-[2-[3-[[(1R)-1,2-Dicarboxyethyl]amino]-3-oxopropyl]-5-(4-guanidinobenzoyl)oxyphenoxy]ethoxy]ethoxy]-4-(4-guanidinobenzoyl)oxyphenyl]propanoylamino]butanedioic acid]	–	–	–	–	–	–	100	150
N=C(N)Nc1ccc(C(=O)Oc2cc(OCCOCCOCCOCCOCCOc3cc(OC(=O)c4ccc(NC(=N)N)cc4)cc(C(=O)N[C@@H](CC(=O)O)C(=O)O)c3)cc(C(=O)N[C@@H](CC(=O)O)C(=O)O)c2)cc1 [Example 2, (2S)-2-[[3-[2-[2-[2-[2-[2-[3-[[(1S)-1,2-Dicarboxyethyl]carbamoyl]-5-(4-guanidinobenzoyl)oxyphenoxy]ethoxy]ethoxy]ethoxy]ethoxy]ethoxy]-5-(4-guanidinobenzoyl)oxybenzoyl]amino]butanedioic acid]	–	–	–	–	–	–	98	142
N=C(N)Nc1ccc(C(=O)Oc2cc(OCCOc3cc(OC(=O)c4ccc(NC(=N)N)cc4)cc(C(=O)N[C@@H](CC(=O)O)C(=O)O)c3)cc(C(=O)N[C@@H](CC(=O)O)C(=O)O)c2)cc1 [Example 9, (2S)-2-[[3-[2-[3-[[(1S)-1,2-Dicarboxyethyl]carbamoyl]-5-(4-guanidinobenzoyl)oxyphenoxy]ethoxy]-5-(4-guanidinobenzoyl)oxybenzoyl]amino]butanedioic acid]	–	–	–	–	–	–	100	195
N=C(N)Nc1ccc(C(=O)Oc2cc(OCCOCCOCCOc3cc(OC(=O)c4ccc(NC(=N)N)cc4)cc(C(=O)N[C@H](CC(=O)O)C(=O)O)c3)cc(C(=O)N[C@H](CC(=O)O)C(=O)O)c2)cc1 [Example 6, (2R)-2-[[3-[2-[2-[2-[3-[[(1R)-1,2-Dicarboxyethyl]carbamoyl]-5-(4-guanidinobenzoyl)oxyphenoxy]ethoxy]ethoxy]ethoxy]-5-(4-guanidinobenzoyl)oxybenzoyl]amino]butanedioic acid ditrifluoroacetate]	–	–	–	–	–	–	100	203
N=C(N)Nc1ccc(C(=O)Oc2ccc(CCC(=O)N[C@@H](CC(=O)O)C(=O)O)c(OCCOCCOCCOc3cc(OC(=O)c4ccc(NC(=N)N)cc4)ccc3CCC(=O)N[C@@H](CC(=O)O)C(=O)O)c2)cc1 [Example 12, (2S)-2-[3-[2-[2-[2-[2-[2-[3-[[(1S)-1,2-Dicarboxyethyl]amino]-3-oxopropyl]-5-(4-guanidinobenzoyl)oxyphenoxy]ethoxy]ethoxy]ethoxy]-4-(4-guanidinobenzoyl)oxyphenyl]propanoylamino]butanedioic acid dihydrochloride]	45.4	44.7	280	–	–	–	100	197
N=C(N)Nc1ccc(C(=O)Oc2cc(OCCOCCOCCOc3cc(OC(=O)c4ccc(NC(=N)N)cc4)cc(C(=O)N(CC(=O)O)CC(=O)O)c3)cc(C(=O)N(CC(=O)O)CC(=O)O)c2)cc1 [Example 5, 2-[[3-[2-[2-[2-[3-[Bis(carboxymethyl)carbamoyl]-5-(4-guanidinobenzoyl)oxyphenoxy]ethoxy]ethoxy]ethoxy]-5-(4-guanidinobenzoyl)oxybenzoyl]-(carboxymethyl)amino]acetic acid ditrifluoroacetate]	–	–	–	–	–	–	99	158
